{
  "source": "paper PMC12624434",
  "about": "(ACS Pharmacology & Translational Science, 2025)",
  "key": {"[1]": {"target": "T1, NRP1 b1 domain (Homo sapiens, UniProt O14786)", "T1 construct": "with the purified recombinant NRP1 b1 domain immobilized on the chip; inferred from Ni-NTA capture), TEV-cleavable (cleaved yes); made in house; host or cells: E. coli Rosetta (DE3)", "T1 sequence (O14786 275-424 limits assumed)": "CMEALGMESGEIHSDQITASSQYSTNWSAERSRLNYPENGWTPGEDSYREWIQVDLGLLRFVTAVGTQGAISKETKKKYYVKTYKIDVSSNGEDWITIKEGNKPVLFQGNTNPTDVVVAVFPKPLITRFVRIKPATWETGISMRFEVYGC", "assay": "SPR binding to immobilized NRP1 b1 domain (Biacore 4000, CM5 chip)", "protocol": "Surface Plasmon Resonance experiments were performed using a Biacore 4000 instrument at a constant temperature of 25 °C. Sensor chips, buffer stock solutions, and immobilization reagents were purchased from GE Healthcare. Recombinant human NRP1-b1 was produced in-house and recombinant human NRP1-ECD (extracellular domain) was purchased from ACRO (catalogue number NR1-H5A228). All other reagents were obtained from Sigma.\nPBS containing 0.05% surfactant P20 was used as the running buffer during immobilization. NRP1-b1 was immobilized onto a CM5 chip using random amine coupling. The four flow cells were treated in the same way to optimize throughput. In summary, spots 1 and 2 were activated with the coupling reagents EDC and NHS for 10 min. NRP1-b1 at a concentration of 20 μg/mL in 10 mM sodium acetate pH 5 was injected onto the surface for 10 and 5 min in spots 1 and 2, respectively to generate surfaces with high and low density. […] The unmodified spot 3 was used as a reference.\nPBS buffer containing 0.05% surfactant P20 and 3% DMSO was used as the running buffer and sample dilution buffer throughout these experiments. Dose–responses were obtained using a 2-fold sample dilution from 16 μM to 31 nM, using an injection time of 60 s. Surface regeneration between injections was not necessary, but a wash step with 1 M NaCl was included after injection of the highest concentration sample for each compound.\nBinding curves were corrected for variations in DMSO concentration and normalized by molecular weight. Binding results to high and low-density surfaces were processed independently and the average ± SD is presented. K Ds reported are derived from steady-state binding responses and therefore correspond to the equilibrium binding affinity of the compounds."}, "[2]": {"assay": "Pharmacokinetics in mice, 2 mg/kg iv", "format": "in vivo", "settings": "female, BALB/c, mouse, plasma", "protocol": "To test compound drug-like properties, selected compounds with low IC50 were further evaluated for their pharmacokinetic (PK) profile. 6–8 week-old BABL/c female mice were used. Two mg/kg of compounds was formulated in 7.5% DMSO and 92.5% PBS solution and intravenously dosed into the tail vein as a bolus. Blood samples were collected by cardiac puncture at 5, 15, 30, 60, 180, and 240 min post dosing. Plasma samples were prepared by centrifugation at 7000 rpm for 5 min, and supernatants were collected, immediately snap-frozen on dry ice and stored at −20 °C. Samples were analyzed by liquid chromatography-tandem mass spectrometry using electrospray ionization and data was analyzed by WinNonlin software."}, "[3]": {"tested_on": "P-p38 in human brain endothelial cell line hCMEC/D3", "assay": "p38 phosphorylation in hCMEC/D3 cells (immunoblotting)", "format": "cell-based", "protocol": "Cell lysates of the human brain endothelial cell line hCMEC/D3 were prepared in RIPA buffer containing 0.1% SDS, protease inhibitor cocktail 2 and phosphatase inhibitor cocktail (Sigma-Aldrich). Proteins were separated by SDS-PAGE and transferred to nitrocellulose by wet electrotransfer. Membranes were blocked with 5% milk in Tris-buffered saline (TBS) overnight at 4 °C and then incubated with the appropriate primary antibody diluted in TBS containing 0.1% Tween-20 and 1% BSA for 2 h and 30 min at rt; the primary antibodies used were specific for phospho P-p38, p38 (1:1000; Cell Signaling Technology) and GADPH (1:10000; Merck). Membranes were washed with 0.1% Tween-20 in TBS and then incubated with goat antimouse or goat antirabbit horseradish peroxidase (HRP)-conjugated IgG (GE Healthcare) diluted 1:10,000 or 1:5000, respectively, with 0.1% Tween-20, 1% BSA in PBS. Membranes were developed using the ECL reagents (Roche) and images were acquired with the Bio-Rad ChemiDoc MP Imaging System and the Bio-Rad Image Lab software (version 6.0.1). Protein bands were quantified using ImageJ software version 1.52a (NIH Bethesda), whereby signal intensity was normalized to signal intensity from GADPH from the same sample as a loading control. Phosphorylation levels were normalized against the total levels of p38. Densitometric quantification of three independent immunoblots was determined by changes in protein or phosphoprotein content normalized to GADPH total protein loading controls, with values expressed as fold increase. Data are shown as mean ± SD. Statistical analysis included one-way ANOVA with significance levels set at 0.05, followed by posthoc Dunnett’s tests."}, "[4]": {"tested_on": "total Na+ currents in rat DRG neurons", "assay": "Whole-cell patch-clamp of Na+ currents in dissociated DRG neurons", "format": "cell-based", "settings": "for V 1/2 activation, total Na+ / V 1/2 inactivation, total Na+: mean ± SEM (n cells)", "description": "Recordings were obtained from acutely dissociated DRG neurons obtained from female rats as described earlier. Patch-clamp recordings were performed at room temperature (22–24 °C). Currents were recorded using an EPC 10 Amplifier-HEKA (HEKA Elektronik, Ludwigshafen, Germany) linked to a computer with Patchmaster software.\nTo determine the effect of VEGFA application on voltage-gated sodium currents, we incubated DRG neurons for 30 min with recombinant rat VEGFA, 1 nM (Cat#P4853, Abnova, Taipei, Taiwan) before whole-cell patch-clamp recordings. […] For the control condition, DRG neurons were incubated for 30 min with DMSO at a final concentration of 0.1%.\nFor Na^+ current (I Na+) recordings, the external solution contained (in mM): 130 NaCl, 3 KCl, 30 tetraethylammonium chloride, 1 CaCl2, 0.5 CdCl2, 1 MgCl2, 10 D-glucose and 10 HEPES (pH 7.3 adjusted with NaOH, and mOsm/L = 315). Patch pipettes were filled with an internal solution containing (in mM): 140 CsF, 1.1Cs-EGTA, 10 NaCl, and 15 HEPES (pH 7.3 adjusted with CsOH, and mOsm/L = 300). Peak Na^+ current was acquired by applying 150 ms voltage steps from – 70 to +60 mV in 5-mV increments from a holding potential of – 60 mV to obtain the current–voltage (I–V) relation.\nNormalization of currents to each cell’s capacitance (pF) was performed to allow for collection of current density data. For I–V curves, functions were fitted to data using a nonlinear least-squares analysis. I–V curves were fitted using double Boltzmann functions: f=a+g1/(1+exp((x−V1/21)/k1))+g2/(1+exp(−(x−V1/22)/k2)) where x is the membrane potential, V 1/2 is the midpoint potential and k is the corresponding slope factor for single Boltzmann functions. Double Boltzmann fits were used to describe the shape of the curve, not to imply the existence of separate channel populations. Numbers 1 and 2 simply indicate first and second midpoints; a along with g are fitting parameters.\nActivation curves were obtained from the I–V curves by dividing the peak current at each depolarizing step by the driving force according to the equation: G = I/(V mem – E rev), where I is the peak current, V mem is the membrane potential and E rev is the reversal potential. The conductance (G) was normalized against the maximum conductance (G max). Steady-state inactivation (SSI) curves were obtained by applying an H-infinity protocol that consisted of 1-s conditioning prepulses from −120 to +10 mV in 10-mV increments followed by a 200 ms test pulse to +10 mV. Inactivation curves were obtained by dividing the peak current recorded at the test pulse by the maximum current (I max). Activation and SSI curves were fitted with the Boltzmann equation."}, "[5]": {"tested_on": "VEGFA-induced aversion to mechanical stimuli in rats", "assay": "Conditioned place aversion (CPA) to 10 g vF stimulation after VEGFA", "format": "in vivo, rat", "protocol": "The procedure was performed as reported previously. Briefly, rats were gently restrained in a fabric cloth and given an intraplantar injection in the hind-paw containing VEGFA165 (10 nM) and compound (EG00229 or 12h, at 30 or 10 μM) alone or in combination in 50 μL of PBS vehicle (NaCl 137 mM, KCl 2.5 mM, Na2HPO4 10 mM, and KH2PO4 1.8 mM), using a 31G needle.\nThe experiments were conducted in a two-chamber device based on the protocols from and as previously described. The protocol includes 4 × 10 min of sequential tests of preconditioning (10 min), conditioning (2 × 10 min) and testing (10 min). During preconditioning, the animal is allowed free access to two connected chambers (30 × 30 × 19 cm), each associated with a scented lip-balm applied to the walls. Immediately following preconditioning, a divider was applied between the chambers, and the rats were conditioned to either stimuli or no-stimuli for 10 min in each chamber. The stimuli consisted of repeated stimulation with a 10 g VF-filament every 30 s for the 10 min that the subject was contained in that chamber, while no stimuli (NS) was applied in the other chamber. The order and side of conditioning was alternated between subjects. Following the conditioning, the divider was removed, and the rat was allowed free access to both chambers for the 10 min test. Animal movements in each chamber were recorded by a camera above, and the duration of time spent in each chamber was recorded during preconditioning and test phase. Decreased time spent in a chamber during the test versus preconditioning indicated avoidance for that chamber and was calculated as a CPA-score: time in VF-chamber during preconditioning – time in VF-chamber during test."}},
  "note": "Entries after “also recorded” stand apart in the source; their conditions may differ. Marks after values point to notes of the source that are not given here.",
  "data": [
    {"smiles": "N=C(N)NCCC[C@H](NC(=O)c1sccc1NS(=O)(=O)c1cc(NCc2csc(N3CCNCC3)n2)cc2cccnc12)C(=O)O.O=CO", "note": "[Compound 12h, (2S)-5-Guanidino-2-[[3-[[6-[(2-piperazin-1-ylthiazol-4-yl)-methylamino]-8-quinolyl]-sulfonylamino]-thiophene-2-carbonyl]-amino]-pentanoic Acid, Formic Acid]", "values": [
      {"measurement": "kon", "setting": "[1]; Figure 2B, SPR-derived binding parameters, read-out: ka", "result": "1.16e+06", "unit": "M⁻¹ s⁻¹"},
      {"measurement": "Kd", "setting": "[1]; steady-state binding, 25 °C, mean ± SD, read-out: SPR NRP1 b1 domain equilibrium KD", "result": "600 ± 100", "unit": "nM"},
      {"measurement": "AUC(0-inf)", "setting": "[2]", "result": 1370, "unit": "ng·h/mL"},
      {"measurement": "AUC(0-t)", "setting": "[2]", "result": 1370, "unit": "ng·h/mL"},
      {"measurement": "Cmax", "setting": "[2]", "result": 5180, "unit": "ng/mL"},
      {"measurement": "Tmax", "setting": "[2]", "result": 4.8, "unit": "min"},
      {"measurement": "Vd", "setting": "[2]", "result": 0.394, "unit": "L/kg"},
      {"measurement": "half-life", "setting": "[2]", "result": 78, "unit": "min"},
      {"measurement": "clearance", "setting": "[2]; iv, 2 mg/kg", "result": 24.5, "unit": "mL/min/kg"},
      {"measurement": "AUC", "setting": "[2]; read-out: AUC", "result": 1370, "unit": "ng·h/mL"},
      {"measurement": "p38 phosphorylation when added alone", "setting": "[3]; 30 μM alone, 5 min", "result": "did not induce p38 phosphorylation"},
      {"measurement": "effect on VEGFA-induced p38 phosphorylation", "setting": "[3]; 30 μM, 15 min prior to VEGFA165 stimulation", "result": "prevented VEGFA-induced p38 phosphorylation"},
      {"measurement": "effect on Na+ currents, alone", "setting": "[4]; 30 μM alone, 30 min", "result": "Neither EG00229 nor 12h alone had any obvious effect"},
      {"measurement": "effect on VEGFA-induced increase in Na+ currents and current density", "setting": "[4]; 30 μM, then VEGFA165 1 nM 30 min, small-sized DRG neurons", "result": "equally reduced; also recorded: prevented the VEGFA-mediated increase in total sodium currents"},
      {"measurement": "V 1/2 activation, total Na+", "setting": "[4]; compound 30 μM + VEGFA", "result": "–16.420 ± 0.916 (10) ^b mV"},
      {"measurement": "V 1/2 inactivation, total Na+", "setting": "[4]; compound 30 μM + VEGFA", "result": "–47.632 ± 1.411 (10) mV"},
      {"measurement": "V 1/2 activation, total Na+", "setting": "[4]; compound alone, 30 μM", "result": "–16.819 ± 0.840 (10) ^b mV"},
      {"measurement": "V 1/2 inactivation, total Na+", "setting": "[4]; compound alone, 30 μM", "result": "–52.032 ± 2.123 (10) mV"},
      {"measurement": "VEGFA-induced stimulus-aversion (time in vF-conditioned chamber), Figure S5", "setting": "[5]; 10 μM coinjected with VEGFA 10 nM", "result": "blocked by 10 μM 12h in males"},
      {"measurement": "effect on VEGFA-induced aversion in CPA-paradigm", "setting": "[5]; 10 μM, male rats", "result": "showed significant reduction in VEGFA-induced aversion"},
      {"measurement": "VEGFA-induced aversion (time in vF-conditioned chamber)", "setting": "[5]; 30 μM coinjected with VEGFA 10 nM, male and female rats", "result": "prevented significant stimulus-aversion from VEGFA in both sexes; also recorded: the aversion was prevented"},
      {"measurement": "CPA-score vs VEGFA/vehicle", "setting": "[5]; 30 μM, female rats", "result": "did not show a statistically significant improvement"}
    ]}
  ]
}
